Test [1] has as its target CaMKII kinase domain (Homo sapiens, UniProt Q9UQM7). Put plainly: Coupled kinase assay with Syntide-2 as substrate. Type of test: biochemical. To be noted: saturating GluN2B S1303D or high levels of CaMKIIN.
Test [2] has as its target CaMKII kinase domain (Homo sapiens, UniProt Q9UQM7, D135N). Put plainly: Fluorescence polarization competition assay against GluN2B. To be noted: FP competition, up to low millimolar concentrations. Type of test: binding.
Test [3] addresses CaMKII kinase domain (D135N) (Homo sapiens, UniProt Q9UQM7, D135N). Put plainly: ITC binding to D135N CaMKII kinase domain. To be noted: protein/peptide concentrations high enough to characterize a Kd of several hundred micromolar.

Chain of CaMKII kinase domain (Homo sapiens, UniProt Q9UQM7, D135N) (Q9UQM7 7-274 D135N): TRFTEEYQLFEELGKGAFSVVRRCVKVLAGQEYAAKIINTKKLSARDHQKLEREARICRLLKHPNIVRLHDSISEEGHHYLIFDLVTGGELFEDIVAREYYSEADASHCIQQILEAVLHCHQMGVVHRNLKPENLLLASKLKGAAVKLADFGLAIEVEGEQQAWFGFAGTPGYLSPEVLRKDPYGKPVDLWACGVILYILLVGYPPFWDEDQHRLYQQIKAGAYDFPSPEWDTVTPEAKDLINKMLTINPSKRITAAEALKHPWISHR
Chain of CaMKII kinase domain (D135N) (Q9UQM7 7-274 D135N): as above
Chain of CaMKII kinase domain (Homo sapiens, UniProt Q9UQM7) (Q9UQM7 7-274): as the sequence (Q9UQM7 7-274 D135N) above, with N129D counted along it

For “MSEILPYGEDKMGRFGADPEGSDLSFSCRLQDTNSFFAGNQAKRPPKLGQIGRAKRVVIEDDRIDDVLKGMGEKPPSGV [CaMKIIN]”, the “effect on Syntide-2 phosphorylation” value in test [1] was “completely inhibit”.
As to PLARTLSVAGLPGKK [Syntide-2], in test [2], the “competition with GluN2B peptide” value is given as “could not be competed off”. Also, the “binding in ITC” value in test [3] is “did not see any appreciable binding”.

Source of the values: paper PMC9336311 (Cell reports, 2022).
